These results are taken from patent publication US9150482B2 (Development Center for Biotechnology, priority 2012, dated 2015).

Where two headings read alike, the source gives them in different places. Marks after values point to notes of the source that are not given here.

For one test, the system named is RINm5F cells. In words: Insulin secretion tests in rat pancreatic beta cells RINm5F. Conditions: 2 hours, FIG. 4; for insulin secretion with exendin-4: 16 mM glucose, ELISA; for effect on insulin secretion in the absence of exendin-4: no exendin-4, 16 mM glucose. Type of test: cell-based. As to the method:
Rat pancreatic beta cell line RINm5F was purchased from the Food Industry Research and Development Institute (Hsinchu, Taiwan), No. BCRC 60410; source: ATCC CRL-11 605. The cells are cultured in 10% FBS RPMI-1640 medium, in a constant temperature CO2 incubator, under 5% CO2, 37° C. and 95% humidity, for subsequent experiments.
To each 96-well plate, add the RINm5F cells (8×10^5 cells/well) and culture the cells for 2 days before the experiments. Before testing, remove the culture medium. To each well in the 96-well plates, add 100 ul of KRPH buffer (136 mM NaCl, 4.8 mM KCl, 1.2 mM CaCl2, 1.2 mM KH2PO4, 1.2 mM MgSO4, 5 mM NaHCO3, 10 mM HEPES), 2.8 mM D-glucose, 0.2% bovine serum albumin, pH 7.4, placed in a CO2 incubator at 37° C. for 30 minutes, to allow the pancreatic islet cells to acclimate to the medium change (from RPMI 1640 to KRPH buffer). Remove the 96-well plates from the incubator. […] Incubate the cells in KRPH buffer and glucose (KRPH +0.2% BSA, 16 mM glucose) containing culture medium for 2 hours to allow for insulin secretion by the islet beta cells under glucose stimulation. The supernatants from the incubation are collected and the concentrations of insulin released in the wells are assayed using ELISA. Various insulin ELISA kits are available from commercial sources, such as Calbiotech (Spring Valley, Calif.), Crystal Chem., Inc. (Downers Grove, Ill.), and Mercodia (Uppsala, Sweden).
Two days after inoculating RINm5F cells, about 8×10^5 cells/well in 96-well plates, add the active ingredients, compounds 1, 2, and 3, from wild ginger flower 95% ethanol extracts, to the cells. […] After 2 hours, the insulin contents in the supernatants are assessed using insulin ELISA kits.
In general terms: In an ELISA, binding on a coated surface is turned into a signal by an enzyme label.

The next test has as its target T1, GLP-1 receptor (Homo sapiens, UniProt P43220).
T1 construct: expressed in transfected cells; host or cells: U2OS (human bone osteosarcoma)
In words: Receptor arrestin translocation assay (GLP-1 potentiator activity, U2OS cells transfected with GLP-1 receptor gene). Type of test: cell-based. As to the method: For example, these cells may be plated as monolayer on a test plate (e.g., a 384-well plate). The cells, for example, may be plated at a density of 4000 cells per well. The test sample concentrations may be 0.2-0.000002 mg/ml. The test volumes may be 25 microliter, and the test time may be 1 hr.
GLP-1 receptors are G-protein coupled receptors with seven transmembrane domains. After activation by hormones or neural stimulants, many G-protein coupled cell surface receptors will internalize from the cell surface to the cytoplasm in endocytosis responses. […] This process may be used to assay the test samples. The extents of receptor endocytosis are closely related to the concentrations of the test samples—the higher the sample concentrations, the stronger the endocytosis responses. Because the densities of cell surface receptors are fixed, when the sample concentrations reach a high number, the extents of endocytosis responses would not increase with increasing sample concentrations, i.e., the response reaches saturation. Based on the concentrations and saturation measurements, one can determine the receptor binding affinities of the test samples.
After activation of G-protein coupled receptors, the receptors are typically desensitized or inactivated. Arrestin is involved in such desensitization or inactivation processes. That is, arrestin will be recruited to the GPCR to desensitize or inactivate the receptors. Therefore, monitoring the translocation of GFP-tagged arrestin from the cytosol to the activated GPCRs on the plasma membrane would allow one to measure the binding of test compounds to the receptor target. (Hudson et al., “High-content screening of know G protein-coupled receptors by arrestin translocation,” Methods Enzymol., 414: 63-78 (2006)).
Using this assay, the following test samples have been assessed: (a) compound 1 (MW 318), (b) compound 2 (MW 318), (c) compound 3 (MW 334), (d) compound 5 (MW 304), (e) compound 6 (MW 376). […] When the sample concentrations reach certain high concentrations, the extents of endocytosis responses will not further increase with increasing sample concentrations because the responses have reached saturation.
Based on the binding curves and saturation measurements as a function of test sample concentrations, the receptor affinities of the test samples can be determined.

For another test, the system named is normal mice. In words: Intraperitoneal glucose tolerance test (IPGTT) in normal mice. Type of test: in vivo, C57BL/6J mice. The settings on record: for hypoglycemic effects: oral, normal mice IPGTT; for Blood glucose concentration: mean±SEM. As to the method:
In this example, in vivo IPGTT is used to validate the blood glucose lowering activity of compound 1 (purity 70%). Twenty-four (24) six weeks old C57BL/6J mice are fed normal diets in an environment of 12/12 light-dark cycles and a constant temperature controlled at 24±2° C. with an unlimited supply of water and food. The mice are divided into four groups of six each, including a control group and three compound 1 (purity 70%) groups. The three compound 1 groups are respectively given orally compound 1 at dosages of 40 mg/Kg, 60 mg/Kg, and 80 mg/Kg. Mice fasted overnight are allowed to eat for 1 hour. After feeding, wait for another hour before giving the test drugs. Thirty (30) minutes after drug administration, glucose at a dose of 1.5 g/kg body weigh is injected intraperitoneally. Blood glucose levels are measured before the glucose injection (0 minutes), as well as at 30, 60 and 90 minutes after the glucose injection, to observe the blood glucose level change curves.
As shown in FIG. 5 and summarized in the Table below, data are expressed as mean±standard error (SEM). P values are calculated using the t test in the Sigma statistical software, wherein p<0.05 is considered significant and marked as *; p<0.01 is considered highly significant and is marked as **; and p≦0.001 is considered extremely significant and marked as ***.

T1 sequence (P43220 24-463, species assumed): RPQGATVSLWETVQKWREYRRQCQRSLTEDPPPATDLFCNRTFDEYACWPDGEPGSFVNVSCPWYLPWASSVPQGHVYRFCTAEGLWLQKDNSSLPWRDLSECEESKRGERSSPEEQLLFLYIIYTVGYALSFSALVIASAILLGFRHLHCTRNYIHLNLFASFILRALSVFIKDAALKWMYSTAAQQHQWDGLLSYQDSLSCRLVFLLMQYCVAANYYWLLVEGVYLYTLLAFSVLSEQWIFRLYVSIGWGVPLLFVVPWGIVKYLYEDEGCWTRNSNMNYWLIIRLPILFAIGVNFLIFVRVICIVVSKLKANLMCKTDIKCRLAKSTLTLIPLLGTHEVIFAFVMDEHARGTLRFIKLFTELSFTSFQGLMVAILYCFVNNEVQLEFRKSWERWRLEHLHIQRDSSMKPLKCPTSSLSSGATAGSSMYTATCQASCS

Regarding `C=C1CCC2C(C)(C)CCCC2(C)C1C1C=C(C=O)CC(O)OO1` (stereo not drawn) [Compound 3, Coronarin B], the “insulin secretion with exendin-4” value in the test on RINm5F cells (exendin-4 5 nM) is recorded as “stimulate more insulin secretions”. In addition, in the test with RINm5F cells, the “effect on insulin secretion in the absence of exendin-4” value (“effect on insulin secretion” below) is “substantially abolished”. The EC50 (commonly the concentration needed to bring the measured effect to its halfway point) at GLP-1 receptor (read-out: EC50 (converted)) was 0.196 µM. For the same compound, the “GLP-1 potentiator activity (in words)” value on GLP-1 receptor (summary of FIG. 3 results) is on record as “most potent”.

With `C=C1CCC2C(C)(C)CCC[C@]2(C)[C@H]1C/C=C(/C=O)CCO` (stereo partly drawn) [Compound 5, (E)-labda-8(17),12-diene-15-ol-16-al], the EC50 on GLP-1 receptor (read-out: EC50 (converted)) is 8.14 µM.

`C=C1CCC2C(C)(C)CCC[C@]2(C)C1C1C=C(C=O)CC(O)O1` (stereo partly drawn) [Compound 2, 11-hydroxy-8(17),12(E)-labdadien-15,16-dial 11,15-hemiacetal]: the “insulin secretion with exendin-4” value in the test with RINm5F cells (exendin-4 5 nM) was “stimulate more insulin secretions”. In addition, in the test on RINm5F cells, the “effect on insulin secretion” value is given as “substantially abolished”. Further, the EC50 on GLP-1 receptor (read-out: EC50 (converted)) was 13.9 µM.

Consider `C=C1CCC2C(C)(C)CCC[C@]2(C)[C@H]1C/C=C(/C=O)CC(OCC)OCC` (stereo partly drawn) [Compound 6, (E)-15,15-diethoxylabda-8(17),12-dien-16-al], for which the EC50 on GLP-1 receptor (read-out: EC50 (converted)) was 11.6 µM.

`CC1(C)CCC[C@]2(C)[C@H]3CC=C(C=O)C[C@@H](O)[C@]3(C=O)CC[C@@H]12` [Compound 1, Galanal B]: in the test with RINm5F cells (exendin-4 2 nM), the “insulin secretion with exendin-4” value is listed as “stimulate more insulin secretions”. The “effect on insulin secretion” value in the test with RINm5F cells is given as “substantially abolished”. Moreover, the EC50 at GLP-1 receptor (GLP-1 4-8 nM constant, U2OS cells expressing GLP-1R, FIG. 3) was 6.603 µg/mL. In addition, the values for the hypoglycemic effects in the test on normal mice (40 mg/Kg group), in the test with normal mice (60 mg/Kg group) and in the test on normal mice (80 mg/Kg group) were 41%, 45% and 71%, respectively. Besides, the Blood glucose concentration in the test on normal mice (40 mg/kg oral, compound 1 purity 70%, 0 minute (before glucose injection)) was 120.5 ± 3.8 mg/dL; in the test on normal mice (40 mg/kg oral, purity 70%, 30 minute after glucose 1.5 g/kg i.p.), 168.2 ± 3.0** mg/dl; in the test with normal mice (40 mg/kg oral, purity 70%, 60 minute after glucose), 127.0 ± 4.4 mg/dL; in the test with normal mice (40 mg/kg oral, purity 70%, 90 minute after glucose) it was 117.3 ± 3.4 mg/dL; with normal mice (60 mg/kg oral, purity 70%, 0 minute (before glucose injection)), 121.5 ± 3.7 mg/dL; with normal mice (60 mg/kg oral, purity 70%, 30 minute after glucose), 169.2 ± 3.6** mg/dl. Moreover, the Blood glucose concentration is 128.0 ± 4.0 mg/dL in the test with normal mice (60 mg/kg oral, purity 70%, 60 minute after glucose); 111.3 ± 2.9* mg/dl in the test on normal mice (60 mg/kg oral, purity 70%, 90 minute after glucose); 120.8 ± 3.7 mg/dL with normal mice (80 mg/kg oral, purity 70%, 0 minute (before glucose injection)); 154.0 ± 2.5*** mg/dl with normal mice (80 mg/kg oral, purity 70%, 30 minute after glucose); 120.3 ± 1.8** mg/dl with normal mice (80 mg/kg oral, purity 70%, 60 minute after glucose); 106.7 mg/dL with normal mice (80 mg/kg oral, purity 70%, 90 minute after glucose).
